Results from ChEMBL document CHEMBL1150018, “New reagents for controlled release of nitric oxide. Structure-stability relationships” (Bioorg Med Chem Lett, 1996).

Legend:
Assay type in all cases: ADME
[1] = Rate of decomposition in aqueous solution (pH 8.0, 30 degree Celsius) at 107 min; settings: buffer, pH 8, 107 min
[2] = Kinetic constant log k was determined
[3] = Half life was determined; settings: rat
[4] = Rate of decomposition in aqueous solution (pH 8.0, 30 degree Celsius) at 150 min; settings: buffer, pH 8, 2.5 h
[5] = Rate of decomposition in aqueous solution (pH 8.0, 30 degree Celsius) at 86 min; settings: buffer, pH 8, 86 min
[6] = Rate of decomposition in aqueous solution (pH 8.0, 30 degree Celsius) at 2900 min; settings: buffer, pH 8, 2900 min
[7] = Rate of decomposition in aqueous solution (pH 8.0, 30 degree Celsius) at 2.6 min; settings: buffer, pH 8, 156 s
[8] = Rate of decomposition in aqueous solution (pH 8.0, 30 degree Centigrade) at 5.3 min; settings: buffer, pH 8, 318 s
[9] = Rate of decomposition in aqueous solution (pH 8.0, 30 degree Celsius) at 270 min; settings: buffer, pH 8, 4.5 h
[10] = Rate of decomposition in aqueous solution (pH 8.0, 30 degree Celsius) at 690 min; settings: buffer, pH 8, 11.5 h
[11] = Rate of decomposition in aqueous solution (pH 8.0, 30 degree Celsius) at 46 min; settings: buffer, pH 8, 46 min
[12] = Rate of decomposition in aqueous solution (pH 8.0, 30 degree Celsius) at 1500 min; settings: buffer, pH 8, 25 h
[13] = Rate of decomposition in aqueous solution (pH 8.0, 30 degree Celsius) at 1800 min; settings: buffer, pH 8, 30 h
[14] = Rate of decomposition in aqueous solution (pH 8.0, 30 degree Celsius) at 84 min; settings: buffer, pH 8, 1.4 h
[15] = Rate of decomposition in aqueous solution(pH 8.0, 30 degree Celsius)at 350 min; settings: buffer, pH 8, 350 min
[16] = Rate of decomposition in aqueous solution (pH 8.0, 30 degree Celsius) at 350 min; settings: buffer, pH 8, 350 min
[17] = Rate of decomposition in aqueous solution (pH 8.0, 30 degree Celsius) at 35 min; settings: buffer, pH 8, 35 min
[18] = Rate of decomposition in aqueous solution (pH 8.0, 30 degree Celsius) at 580 min; settings: buffer, pH 8, 580 min
[19] = Rate of decomposition in aqueous solution (pH 8.0, 30 degree Celsius) at 87 min; settings: buffer, pH 8, 1.45 h
[20] = Rate of decomposition in aqueous solution (pH 8.0, 30 degree Celsius) at 190 min; settings: buffer, pH 8, 190 min

Log k [2] | half-life [3] | Structure (SMILES) | further results
-2.187 | 107 min | CC/C(=C\C(CNC(=O)c1cccnc1)=N\O)C(C)[N+](=O)[O-] (stereo unspecified) | k [1]: 0.0065 min⁻¹
-2.347 | 150 min | CC/C(=C\C(=N\O)C(N)=O)C(CC)[N+](=O)[O-] (stereo unspecified) | k [4]: 0.0045 min⁻¹
-2.092 | 86 min | CC/C(=C\C(CNC(C)=O)=N\O)C(C)[N+](=O)[O-] (stereo unspecified) | k [5]: 0.0081 min⁻¹
-3.62 | 2900 min | CC/C(=C\C(=N\O)C(N)=O)C([N+](=O)[O-])C(C)(C)C (stereo unspecified) | k [6]: 0.00024 min⁻¹
0.569 | 2.6 min | COCC(/C(C)=C/C(=N/O)C(N)=O)[N+](=O)[O-] (stereo unspecified) | k [7]: 0.27 min⁻¹
-0.886 | 5.3 min | COCC(/C(C)=C/C(CNC(=O)c1cccnc1)=N/O)[N+](=O)[O-] (stereo unspecified) | k [8]: 0.13 min⁻¹
-2.585 | 270 min | CC/C(=C\C(CNC(C)=O)=N\O)C(CC)[N+](=O)[O-] (stereo unspecified) | k [9]: 0.0026 min⁻¹
-3 | 690 min | CC/C(=C\C(=N\O)C(N)=O)C(C(C)C)[N+](=O)[O-] (stereo unspecified) | k [10]: 0.001 min⁻¹
-1.824 | 46 min | CC/C(=C\C(=N\O)C(N)=O)C(C)[N+](=O)[O-] (stereo unspecified) | k [11]: 0.00025 s⁻¹
-3.337 | 1500 min | CC/C(=C\C(CNC(C)=O)=N\O)C(C(C)C)[N+](=O)[O-] (stereo unspecified) | k [12]: 0.00046 min⁻¹
-3.42 | 1800 min | CC/C(=C\C(CNC(=O)c1cccnc1)=N\O)C(C(C)C)[N+](=O)[O-] (stereo unspecified) | k [13]: 0.00038 min⁻¹
 | 84 min | O=C(NCC(/C=C1\CCCCC1[N+](=O)[O-])=N\O)c1cccnc1 (stereo unspecified) | k [14]: 0.0083 min⁻¹
-2.699 | 350 min | CCC(/C(C)=C/C(CNC(=O)c1cccnc1)=N/O)[N+](=O)[O-] (stereo unspecified) | k [15]: 0.002 min⁻¹
-2.699 | 350 min | CC/C(=C\C(CNC(=O)c1cccnc1)=N\O)C(CC)[N+](=O)[O-] (stereo unspecified) | k [16]: 0.002 min⁻¹
 | 35 min | NC(=O)C(/C=C1\CCCCC1[N+](=O)[O-])=N\O (stereo unspecified) | k [17]: 0.02 min⁻¹
-2.921 | 580 min | CC(C)/C(=C\C(CNC(=O)c1cccnc1)=N\O)C(C)[N+](=O)[O-] (stereo unspecified) | k [18]: 0.0012 min⁻¹
 | 87 min | CC(=O)NCC(/C=C1\CCCCC1[N+](=O)[O-])=N\O (stereo unspecified) | k [19]: 0.008 min⁻¹
-2.432 | 190 min | CC(C)/C(=C\C(=N\O)C(N)=O)C(C)[N+](=O)[O-] (stereo unspecified) | k [20]: 0.0037 min⁻¹
